Laboratory results as given in US20240217960A1, “TRIAZINE DERIVATIVE AS COVALENT INHIBITORS OF PI3K” (UNIVERSITÄT BASEL, priority 2021, published 2024).
Read-outs that look alike come from different tables or passages of the source.

Tests used:
p110α (PI3Kα) = p110α (PI3Kα) (Homo sapiens, UniProt P42336); assay: Determination of kinetic constants (kinact, Ki) for p110α by LanthaScreen Technology; assay type: binding; details: for kinact: read-out: kinact PI3Kα; for kinact/KI: read-out: kinact/Ki PI3Kα
[1] = Intrinsic reactivity of the inhibitors (kchem) with βME measured with HPLC; assay type: physicochemical; details: 1 mM inhibitor + 600 mM βME, n = 3
[2] = tested on: pSer473 of PKB/Akt in SKOV3 cells; assay: In Cell Western cellular PI3K signaling and IC50 determination; assay type: cell-based; details: Homo sapiens, SK-OV-3; SKOV3 cells; 2 or 3 independent measurements; read-out: IC50 pPKB (S473) SKOV3
Procedure: Protein phosphorylation was detected as follows: pSer473 of PKB/Akt with rabbit polyclonal antibody from Cell Signaling Technology (CST) (#4058) by In-Cell Western assays, where 1.2×10^4 SKOV3 cells/well in 96-well plates were plated (Cell Carrier, PerkinElmer) for 24 hours (37° C., 5% CO2), as described in Ref. ^25.

[3] = dissociation constant of the first reversible binding, global fitting with KinTek, read-out: Ki PI3Kα
[4] = maximum potential rate of covalent bond formation, global fitting with KinTek

p110α (PI3Kα), sequence (P42336 whole entry): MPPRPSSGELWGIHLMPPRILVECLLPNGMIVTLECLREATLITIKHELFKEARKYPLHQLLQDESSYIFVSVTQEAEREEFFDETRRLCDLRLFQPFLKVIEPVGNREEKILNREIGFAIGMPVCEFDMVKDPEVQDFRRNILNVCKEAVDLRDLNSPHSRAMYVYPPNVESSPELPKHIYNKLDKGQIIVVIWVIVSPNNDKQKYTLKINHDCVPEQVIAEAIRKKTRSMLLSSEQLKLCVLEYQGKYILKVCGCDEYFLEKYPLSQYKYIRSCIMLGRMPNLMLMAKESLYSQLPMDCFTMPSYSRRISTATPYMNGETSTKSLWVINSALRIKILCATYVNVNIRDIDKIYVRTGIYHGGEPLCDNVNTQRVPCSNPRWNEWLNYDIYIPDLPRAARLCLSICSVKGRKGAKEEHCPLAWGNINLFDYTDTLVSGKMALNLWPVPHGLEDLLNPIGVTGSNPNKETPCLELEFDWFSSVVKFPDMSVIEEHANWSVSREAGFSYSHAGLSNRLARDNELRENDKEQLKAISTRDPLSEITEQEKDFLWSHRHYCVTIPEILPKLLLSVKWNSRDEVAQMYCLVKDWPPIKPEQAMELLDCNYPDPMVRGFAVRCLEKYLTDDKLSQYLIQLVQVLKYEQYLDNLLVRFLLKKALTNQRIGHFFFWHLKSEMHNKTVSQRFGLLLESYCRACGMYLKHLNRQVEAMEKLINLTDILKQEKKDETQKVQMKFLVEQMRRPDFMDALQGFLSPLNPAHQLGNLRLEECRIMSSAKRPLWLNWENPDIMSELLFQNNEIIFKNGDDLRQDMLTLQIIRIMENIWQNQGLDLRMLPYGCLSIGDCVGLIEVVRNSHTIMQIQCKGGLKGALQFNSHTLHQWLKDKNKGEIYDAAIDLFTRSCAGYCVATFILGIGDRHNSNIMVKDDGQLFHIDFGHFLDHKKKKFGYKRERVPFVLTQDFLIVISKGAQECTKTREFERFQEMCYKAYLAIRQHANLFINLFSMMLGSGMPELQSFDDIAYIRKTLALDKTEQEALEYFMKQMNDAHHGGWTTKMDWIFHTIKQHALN
p110α (PI3Kα), sequence (P27986 whole entry partner): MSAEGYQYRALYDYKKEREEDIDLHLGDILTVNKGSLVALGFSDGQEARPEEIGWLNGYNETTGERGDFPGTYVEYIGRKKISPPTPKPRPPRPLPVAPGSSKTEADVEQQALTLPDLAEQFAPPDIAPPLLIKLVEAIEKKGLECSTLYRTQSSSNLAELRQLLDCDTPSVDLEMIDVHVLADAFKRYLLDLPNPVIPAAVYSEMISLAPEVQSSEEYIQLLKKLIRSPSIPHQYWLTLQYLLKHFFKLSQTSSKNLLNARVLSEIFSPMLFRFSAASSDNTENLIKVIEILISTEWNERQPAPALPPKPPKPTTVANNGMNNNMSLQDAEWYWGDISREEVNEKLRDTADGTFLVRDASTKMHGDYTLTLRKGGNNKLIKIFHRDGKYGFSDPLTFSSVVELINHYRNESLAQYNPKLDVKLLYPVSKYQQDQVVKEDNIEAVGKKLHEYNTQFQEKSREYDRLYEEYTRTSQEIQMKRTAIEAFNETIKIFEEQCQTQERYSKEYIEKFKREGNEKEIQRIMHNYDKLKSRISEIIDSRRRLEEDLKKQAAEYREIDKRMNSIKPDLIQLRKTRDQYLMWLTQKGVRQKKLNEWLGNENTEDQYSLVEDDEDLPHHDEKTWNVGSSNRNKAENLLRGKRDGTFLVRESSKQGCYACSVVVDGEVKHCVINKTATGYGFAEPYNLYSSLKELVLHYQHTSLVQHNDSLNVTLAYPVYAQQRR

SMILES | IC50 [2] [µM] | other results
C=CC(=O)CCCCC(=O)N1CCN(c2nc(-c3cnc(N)nc3C(F)F)nc(N3CCOCC3)n2)CC1 [Compound 1, 1-(4-(4-(2-amino-4-(difluoromethyl)pyrimidin-5-yl)-6-morpholino-1,3,5-triazin-2-yl)piperazin-1-yl)oct-7-ene-1,6-dione] | – | Ki (p110α (PI3Kα); [3]): 0.00587 µM; kinact (p110α (PI3Kα); [4]): 0.0245 s⁻¹; kinact/KI (p110α (PI3Kα)): 4.2e+06 M⁻¹ s⁻¹; kchem (intrinsic reactivity of the inhibitors) [1]: >>1.00 × 10^−1 M^−1 · s^−1
C=CC(=O)N(C)CCCC(=O)N1CCN(c2nc(-c3cnc(N)nc3C(F)F)nc(N3CCOCC3)n2)CC1 [Compound 7, N-(4-(4-(4-(2-amino-4-(difluoromethyl)pyrimidin-5-yl)-6-morpholino-1,3,5-triazin-2-yl)piperazin-1-yl)-4-oxobutyl)-N-methylacrylamide] | – | Ki (p110α (PI3Kα); [3]): 0.00722 µM; kinact (p110α (PI3Kα)): 6.9e-05 s⁻¹; kinact/KI (p110α (PI3Kα)): 9600 M⁻¹ s⁻¹; kchem (intrinsic reactivity of the inhibitors) [1]: 0.000228 M⁻¹ s⁻¹
C/C=C/C(=O)N(C)CCCC(=O)N1CCN(c2nc(-c3cnc(N)nc3C(F)F)nc(N3CCOCC3)n2)CC1 [Compound 9, (E)-N-(4-(4-(4-(2-amino-4-(difluoromethyl)pyrimidin-5-yl)-6-morpholino-1,3,5-triazin-2-yl)piperazin-1-yl)-4-oxobutyl)-N-methylbut-2-enamide] | – | Ki (p110α (PI3Kα); Ki value determined after 60 min of drug incubation with PI3Kα, 2 independent measurements, read-out: Ki PI3Kα (footnote d)): 0.0054 µM; kchem (intrinsic reactivity of the inhibitors) [1]: 3.35e-06 M⁻¹ s⁻¹
CC(C)=CC(=O)NCCCC(=O)N1CCN(c2nc(-c3cnc(N)nc3C(F)F)nc(N3CCOCC3)n2)CC1 [Compound 17, N-(4-(4-(4-(2-amino-4-(difluoromethyl)pyrimidin-5-yl)-6-morpholino-1,3,5-triazin-2-yl)piperazin-1-yl)-4-oxobutyl)-3-methylbut-2-enamide] | – | kchem (intrinsic reactivity of the inhibitors) [1]: <<1.00 × 10^−7 M^−1 · s^−1
CCC(=O)N1CCC(C(=O)NCC(=O)N2CCN(c3nc(-c4cnc(N)nc4C(F)F)nc(N4CCOCC4)n3)CC2)CC1 [Compound 44, N-(2-(4-(4-(2-amino-4-(difluoromethyl)pyrimidin-5-yl)-6-morpholino-1,3,5-triazin-2-yl)piperazin-1-yl)-2-oxoethyl)-1-propionylpiperidine-4-carboxamide] | 0.2 | Ki (p110α (PI3Kα); [3]): 0.00255 µM
CN(C)C/C=C/C(=O)N1CCC(C(=O)N(C)CC(=O)N2CCN(c3nc(-c4cnc(N)nc4C(F)F)nc(N4CCOCC4)n3)CC2)CC1 [Compound 56, (E)-N-(2-(4-(4-(2-amino-4-(difluoromethyl)pyrimidin-5-yl)-6-morpholino-1,3,5-triazin-2-yl)piperazin-1-yl)-2-oxoethyl)-1-(4-(dimethylamino)but-2-enoyl)-N-methylpiperidine-4-carboxamide] | 0.891 | –
CC(C)=CC(=O)CCCC(=O)N1CCC(C(=O)N2CCN(c3nc(-c4cnc(N)nc4C(F)F)nc(N4CCOCC4)n3)CC2)CC1 [Compound 69, 1-(4-(4-(4-(2-amino-4-(difluoromethyl)pyrimidin-5-yl)-6-morpholino-1,3,5-triazin-2-yl)piperazine-1-carbonyl)piperidin-1-yl)-7-methyloct-6-ene-1,5-dione] | 0.031 | –
CC(C)CC(=O)CCCC(=O)N1CCC(C(=O)N2CCN(c3nc(-c4cnc(N)nc4C(F)F)nc(N4CCOCC4)n3)CC2)CC1 [Compound 70, 1-(4-(4-(4-(2-amino-4-(difluoromethyl)pyrimidin-5-yl)-6-morpholino-1,3,5-triazin-2-yl)piperazine-1-carbonyl)piperidin-1-yl)-7-methyloctane-1,5-dione] | 0.063 | –
CC(C)=CC(=O)CCCC(=O)N1CCC(C(=O)N2CCN(c3nc(-c4cnc(N)cc4C(F)(F)F)nc(N4CCOCC4)n3)CC2)CC1 [Compound 71, 1-(4-(4-(4-(6-amino-4-(trifluoromethyl)pyridin-3-yl)-6-morpholino-1,3,5-triazin-2-yl)piperazine-1-carbonyl)piperidin-1-yl)-7-methyloct-6-ene-1,5-dione] | 0.112 | –
CC(C)=CC(=O)CCC(=O)N1CCC(CN2CCN(c3nc(-c4cnc(N)nc4C(F)F)nc(N4CCOCC4)n3)CC2)CC1 [Compound 72, 1-(4-((4-(4-(2-amino-4-(difluoromethyl)pyrimidin-5-yl)-6-morpholino-1,3,5-triazin-2-yl)piperazin-1-yl)methyl)piperidin-1-yl)-6-methylhept-5-ene-1,4-dione] | 0.046 | –
CC(C)=CC(=O)CCCC(=O)N1CCC(CN2CCN(c3nc(-c4cnc(N)cc4C(F)(F)F)nc(N4CCOCC4)n3)CC2)CC1 [Compound 78, 1-(4-((4-(4-(6-amino-4-(trifluoromethyl)pyridin-3-yl)-6-morpholino-1,3,5-triazin-2-yl)piperazin-1-yl)methyl)piperidin-1-yl)-7-methyloct-6-ene-1,5-dione] | 0.177 | –
CC(C)=CC(=O)CCC(=O)N1CC[C@H](C(=O)N2CCN(c3nc(-c4cnc(N)nc4C(F)F)nc(N4CCOCC4)n3)CC2)C1 [Compound 81, (S)-1-(3-(4-(4-(2-amino-4-(difluoromethyl)pyrimidin-5-yl)-6-morpholino-1,3,5-triazin-2-yl)piperazine-1-carbonyl)pyrrolidin-1-yl)-6-methylhept-5-ene-1,4-dione] | 0.024 | –
CC(C)=CC(=O)CCCC(=O)N1CC[C@H](C(=O)N2CCN(c3nc(-c4cnc(N)nc4C(F)F)nc(N4CCOCC4)n3)CC2)C1 [Compound 84, (S)-1-(3-(4-(4-(2-amino-4-(difluoromethyl)pyrimidin-5-yl)-6-morpholino-1,3,5-triazin-2-yl)piperazine-1-carbonyl)pyrrolidin-1-yl)-7-methyloct-6-ene-1,5-dione] | 0.011 | –
CC(C)=CC(=O)CCCC(=O)N1CC[C@H](C(=O)N2CCN(c3nc(-c4cnc(N)cc4C(F)(F)F)nc(N4CCOCC4)n3)CC2)C1 [Compound 85, (S)-1-(3-(4-(4-(6-amino-4-(trifluoromethyl)pyridin-3-yl)-6-morpholino-1,3,5-triazin-2-yl)piperazine-1-carbonyl)pyrrolidin-1-yl)-7-methyloct-6-ene-1,5-dione] | 0.073 | –
CC(C)=CC(=O)CCC(=O)N1CC[C@@H](C(=O)N2CCN(c3nc(-c4cnc(N)nc4C(F)F)nc(N4CCOCC4)n3)CC2)C1 [Compound 86, (R)-1-(3-(4-(4-(2-amino-4-(difluoromethyl)pyrimidin-5-yl)-6-morpholino-1,3,5-triazin-2-yl)piperazine-1-carbonyl)pyrrolidin-1-yl)-6-methylhept-5-ene-1,4-dione] | 0.017 | –

More lines, main results first:

IC50 [2] [µM] | SMILES | other results
0.0067 | CC(C)=CC(=O)CCCC(=O)N1CC[C@@H](C(=O)N2CCN(c3nc(-c4cnc(N)nc4C(F)F)nc(N4CCOCC4)n3)CC2)C1 [Compound 89, (R)-1-(3-(4-(4-(2-amino-4-(difluoromethyl)pyrimidin-5-yl)-6-morpholino-1,3,5-triazin-2-yl)piperazine-1-carbonyl)pyrrolidin-1-yl)-7-methyloct-6-ene-1,5-dione] | –
0.093 | CC(C)=CC(=O)CCCC(=O)N1CC[C@@H](C(=O)N2CCN(c3nc(-c4cnc(N)cc4C(F)(F)F)nc(N4CCOCC4)n3)CC2)C1 [Compound 90, (R)-1-(3-(4-(4-(6-amino-4-(trifluoromethyl)pyridin-3-yl)-6-morpholino-1,3,5-triazin-2-yl)piperazine-1-carbonyl)pyrrolidin-1-yl)-7-methyloct-6-ene-1,5-dione] | –
0.034 | CC(C)=CC(=O)CCC(=O)N1CC(C(=O)N2CCN(c3nc(-c4cnc(N)nc4C(F)F)nc(N4CCOCC4)n3)CC2)C1 [Compound 92, 1-(3-(4-(4-(2-amino-4-(difluoromethyl)pyrimidin-5-yl)-6-morpholino-1,3,5-triazin-2-yl)piperazine-1-carbonyl)azetidin-1-yl)-6-methylhept-5-ene-1,4-dione] | –
0.012 | CC(C)=CC(=O)CCCC(=O)N1CC(C(=O)N2CCN(c3nc(-c4cnc(N)nc4C(F)F)nc(N4CCOCC4)n3)CC2)C1 [Compound 94, 1-(3-(4-(4-(2-amino-4-(difluoromethyl)pyrimidin-5-yl)-6-morpholino-1,3,5-triazin-2-yl)piperazine-1-carbonyl)azetidin-1-yl)-7-methyloct-6-ene-1,5-dione] | –
0.033 | CC(C)=CC(=O)CCC(=O)N1CC(CN2CCN(c3nc(-c4cnc(N)nc4C(F)F)nc(N4CCOCC4)n3)CC2)C1 [Compound 95, 1-(3-((4-(4-(2-amino-4-(difluoromethyl)pyrimidin-5-yl)-6-morpholino-1,3,5-triazin-2-yl)piperazin-1-yl)methyl)azetidin-1-yl)-6-methylhept-5-ene-1,4-dione] | –
0.017 | CC(C)=CC(=O)CCCC(=O)N1CC(CN2CCN(c3nc(-c4cnc(N)nc4C(F)F)nc(N4CCOCC4)n3)CC2)C1 [Compound 97, 1-(3-((4-(4-(2-amino-4-(difluoromethyl)pyrimidin-5-yl)-6-morpholino-1,3,5-triazin-2-yl)piperazin-1-yl)methyl)azetidin-1-yl)-7-methyloct-6-ene-1,5-dione] | –
0.00596 | N#C/C(=C/C1CC1)C(=O)N1CCC(COCC(=O)N2CCN(c3nc(-c4cnc(N)nc4C(F)F)nc(N4CCOCC4)n3)CC2)CC1 [Compound 118, (Z)-2-(4-((2-(4-(4-(2-amino-4-(difluoromethyl)pyrimidin-5-yl)-6-morpholino-1,3,5-triazin-2-yl)piperazin-1-yl)-2-oxoethoxy)methyl)piperidine-1-carbonyl)-3-cyclopropylacrylonitrile] | Ki (p110α (PI3Kα); [3]): 0.001 µM; kinact (p110α (PI3Kα); [4]): 0.0108 s⁻¹; kinact/KI (p110α (PI3Kα)): 1.08e+07 M⁻¹ s⁻¹
